In patent US8106048B2, “Heterocyclic NF-κB inhibitors” (4SC AG, priority 2004, dated 2012):

system: A549-NF-κB-SEAP reporter cells; test: Inhibition of NF-κB-induced inflammation: […] NINA Instant Assay, TNF-α stimulated SEAP reporter; format: cell-based; details: % inhibition classes
From the text: For the determination of anti-inflammatory activity of the compounds the […]® NINA Instant Assay from Cell Culture Service GmBH was used. This assay is based on […] recombinant A549-NF-κB-SEAP reporter cells preceded in 96-well flat bottom plates. As the transfected reportergen for SEAP (secreted embryonic alkaline phosphatase) is under transcriptional control of a NF-κB-responsive element, the expression of this reporter is activated upon stimulation with TNF-α. SEAP secretion into the culture supernatant can be detected by the chemiluminescent substrate CSPD®. Test compounds that inhibit the NF-κB activation show reduced SEAP activity and reduced luminescent readout.
Following 18 h of reactivation at 37° C., 5% CO2 and 90% relative humidity, the cells were incubated with 0.01 up to 100 μM of test compound for 4.5 h before stimulation with 2 ng/ml TNF-α. After stimulation with TNF-α for 22 h endogenous phosphatases were inactivated and CSPD® substrate was supplied for 40 min. SEAP activity then was quantified by measuring luminescence as relative light units (RLU) using a Tecan Ultra reader. Each data point was recorded in quadruplicates and EC50 values were calculated via fitting function and the Microsoft Excel Solver.

SMILES | Biological activity (inhibition in the NF-κB inflammation assay)
CC(C)(C)OC(=O)N1CCC(c2nc(C(=O)NC(=N)Nc3nc4ccccc4[nH]3)cs2)CC1 [compound 95] | +++ (“+++” stands for 90-100% inhibition)
O=C(NCC1CCN(c2nc(C(=O)N3CCN(c4cccc(C(F)(F)F)c4)CC3)cs2)CC1)c1ccc(C(F)(F)F)c(F)c1 [compound 99] | + (“+” stands for 50-80% inhibition)
O=C(CCC1CCCC1)NCC1CCN(c2nc(C(=O)N3CCN(c4cccc(C(F)(F)F)c4)CC3)cs2)CC1 [compound 100] | + (“+” stands for 50-80% inhibition)
O=C(NCC1CCN(c2nc(C(=O)N3CCN(c4cccc(C(F)(F)F)c4)CC3)cs2)CC1)c1ccccc1OC(F)(F)F [compound 101] | + (“+” stands for 50-80% inhibition)
N#Cc1ccc(C(=O)NCC2CCN(c3nc(C(=O)N4CCN(c5cccc(C(F)(F)F)c5)CC4)cs3)CC2)cc1 [compound 102] | + (“+” stands for 50-80% inhibition)
Cc1sc(C2CCN(C(=O)c3ccccc3OC(F)(F)F)CC2)nc1CC(=O)N1CCN(c2cccc(C(F)(F)F)c2)CC1 [compound 103] | ++ (“++” means 80-90%)
O=C(Nc1nc2ccccc2[nH]1)c1csc(C2CCN(C(=O)c3ccccc3OC(F)(F)F)CC2)n1 [compound 105] | + (“+” stands for 50-80% inhibition)
Cc1cc2nc(NC(=O)Cc3nc(C4CCN(C(=O)c5ccccc5OC(F)(F)F)CC4)sc3C)[nH]c2cc1C [compound 106] | + (“+” stands for 50-80% inhibition)
O=C(c1csc(C2CCN(Cc3ccncc3)CC2)n1)N1CCN(c2cccc(C(F)(F)F)c2)CC1 [compound 107] | + (“+” stands for 50-80% inhibition)
O=C(c1csc(C2CCN(Cc3ccccc3OC(F)(F)F)CC2)n1)N1CCN(c2cccc(C(F)(F)F)c2)CC1 [compound 109] | + (“+” stands for 50-80% inhibition)
O=C(c1csc(C2CCN(C(=O)c3ccccc3OC(F)(F)F)CC2)n1)N(Cc1ccc(Cl)cc1)Cc1ccc(Cl)cc1 [compound 110] | + (“+” stands for 50-80% inhibition)
O=C(c1csc(C2CCN(C(=O)c3ccccc3OC(F)(F)F)CC2)n1)N1CCC(n2nnc3ccccc32)CC1 [compound 111] | + (“+” stands for 50-80% inhibition)
N#Cc1ccc(N2CCC(c3nc(C(=O)N4CCN(c5cccc(C(F)(F)F)c5)CC4)cs3)CC2)cc1 [compound 112] | + (“+” stands for 50-80% inhibition)
O=C(O)N1CCC(c2nc(C(=O)N3CCN(c4cccc(C(F)(F)F)c4)CC3)cs2)CC1 [compound 113] | + (“+” stands for 50-80% inhibition)
O=C(c1csc(C2CCN(Cc3cccc(OC(F)(F)F)c3)CC2)n1)N1CCN(c2cccc(C(F)(F)F)c2)CC1 [compound 115] | ++ (“++” means 80-90%)
COc1ccc(OC)c(N2CCC(c3nc(C(=O)N4CCN(c5cccc(C(F)(F)F)c5)CC4)cs3)CC2)c1 [compound 116] | + (“+” stands for 50-80% inhibition)
CS(=O)(=O)c1ccc(N2CCC(c3nc(C(=O)N4CCN(c5cccc(C(F)(F)F)c5)CC4)cs3)CC2)cc1 [compound 117] | + (“+” stands for 50-80% inhibition)
O=C(c1csc(C2CCN(c3cc(C(F)(F)F)ccn3)CC2)n1)N1CCN(c2cccc(C(F)(F)F)c2)CC1 [compound 118] | + (“+” stands for 50-80% inhibition)
O=C(c1csc(C2CCN(c3ccccc3)CC2)n1)N1CCN(c2cccc(C(F)(F)F)c2)CC1 [compound 119] | + (“+” stands for 50-80% inhibition)
COc1nc(OC)nc(N2CCN(C(=O)c3csc(C4CCN(Cc5ccccc5)CC4)n3)CC2)n1 [compound 120] | + (“+” stands for 50-80% inhibition)
COc1nc(OC)nc(N2CCN(C(=O)c3csc(C4CCN(Cc5ccc(Br)cc5)CC4)n3)CC2)n1 [compound 121] | + (“+” stands for 50-80% inhibition)
O=C(c1csc(C2CCN(c3ccccn3)CC2)n1)N1CCN(c2cccc(C(F)(F)F)c2)CC1 [compound 123] | ++ (“++” means 80-90%)
CSc1nccc(N2CCN(C(=O)c3csc(C4CCN(C(=O)c5ccccc5OC(F)(F)F)CC4)n3)CC2)n1 [compound 124] | + (“+” stands for 50-80% inhibition)
CC(C)(C)OC(=O)N1CCC(C(=O)N2CCN(c3cccc(C(F)(F)F)c3)CC2)CC1 [compound 125] | + (“+” stands for 50-80% inhibition)

SMILES | Biological activity (inhibition in the NF-κB inflammation assay)
COc1nc(OC)nc(N2CCN(C(=O)c3csc(C4CCN(C(=O)Cc5ccc(F)cc5)CC4)n3)CC2)n1 [compound 126] | + (“+” stands for 50-80% inhibition)
COc1nc(OC)nc(N2CCN(C(=O)c3csc(C4CCN(C(=O)c5ccccc5OC(F)(F)F)CC4)n3)CC2)n1 [compound 127] | + (“+” stands for 50-80% inhibition)
Cc1sc(C2CCN(C(=O)c3ccccc3OC(F)(F)F)CC2)nc1CC(=O)N1CCN(c2cccc(Cl)c2)CC1 [compound 128] | +++ (“+++” stands for 90-100% inhibition)
O=C(c1csc(C2CCN(C(=O)c3ccccc3OC(F)(F)F)CC2)n1)N1CCN(c2ncnc3nc[nH]c23)CC1 [compound 129] | + (“+” stands for 50-80% inhibition)
COc1cc(N2CCN(C(=O)c3csc(C4CCN(C(=O)c5ccccc5OC(F)(F)F)CC4)n3)CC2)nc(OC)n1 [compound 130] | + (“+” stands for 50-80% inhibition)
Cc1cc2nc(NC(=O)c3csc(C4CCN(C(=O)Cc5ccc(F)cc5)CC4)n3)[nH]c2cc1C [compound 131] | + (“+” stands for 50-80% inhibition)
Cc1cc2nc(NC(=O)c3csc(C4CCN(C(=O)c5cc(-c6ccc(Cl)cc6)oc5C(F)(F)F)CC4)n3)[nH]c2cc1C [compound 132] | + (“+” stands for 50-80% inhibition)
Cc1cc2nc(NC(=O)c3csc(C4CCN(C(=O)c5ccccc5OC(F)(F)F)CC4)n3)[nH]c2cc1C [compound 133] | +++ (“+++” stands for 90-100% inhibition)
O=C(Nc1ccccc1)N1CCC(c2nc(C(=O)N3CCN(c4cccc(C(F)(F)F)c4)CC3)cs2)CC1 [compound 134] | + (“+” stands for 50-80% inhibition)
O=C(Nc1cc(F)cc2c1OCCO2)N1CCC(c2nc(C(=O)N3CCN(c4cccc(C(F)(F)F)c4)CC3)cs2)CC1 [compound 135] | + (“+” stands for 50-80% inhibition)
O=C(Nc1ccc2c(c1)OCCO2)N1CCC(c2nc(C(=O)N3CCN(c4cccc(C(F)(F)F)c4)CC3)cs2)CC1 [compound 136] | + (“+” stands for 50-80% inhibition)
Cc1cc(NC(=O)N2CCC(c3nc(C(=O)N4CCN(c5cccc(C(F)(F)F)c5)CC4)cs3)CC2)c(C(F)(F)F)o1 [compound 137] | + (“+” stands for 50-80% inhibition)
O=C(Nc1ccccc1OC(F)(F)F)N1CCC(c2nc(C(=O)N3CCN(c4cccc(C(F)(F)F)c4)CC3)cs2)CC1 [compound 140] | + (“+” stands for 50-80% inhibition)
O=C(Nc1cccc(F)c1)N1CCC(c2nc(C(=O)N3CCN(c4cccc(C(F)(F)F)c4)CC3)cs2)CC1 [compound 142] | ++ (“++” means 80-90%)
O=C(Nc1ccc(F)cc1)N1CCC(c2nc(C(=O)N3CCN(c4cccc(C(F)(F)F)c4)CC3)cs2)CC1 [compound 143] | + (“+” stands for 50-80% inhibition)
Cc1cc2nc(NC(=O)c3csc(C4CCNCC4)n3)[nH]c2cc1C [compound 144] | + (“+” stands for 50-80% inhibition)
CC(c1cc2ccccc2[nH]1)N(C)C(=O)c1csc(C2CCN(C(=O)c3ccccc3OC(F)(F)F)CC2)n1 (centres unmarked) [compound 145] | + (“+” stands for 50-80% inhibition)
O=C(c1csc(C2CCN(C(=O)c3ccccc3OC(F)(F)F)CC2)n1)N1CCOC(c2ccccc2)C1 (centres unmarked) [compound 146] | + (“+” stands for 50-80% inhibition)
CN(C(=O)c1csc(C2CCN(C(=O)c3ccccc3OC(F)(F)F)CC2)n1)C(CN1CCOCC1)c1ccccc1 (centres unmarked) [compound 147] | + (“+” stands for 50-80% inhibition)
O=C(c1csc(C2CCN(C(=O)c3ccccc3OC(F)(F)F)CC2)n1)N(CCO)Cc1ccccc1 [compound 148] | ++ (“++” means 80-90%)
O=C(c1csc(C2CCN(C(=O)c3ccccc3OC(F)(F)F)CC2)n1)N(CCc1ccccc1)Cc1ccccc1 [compound 149] | + (“+” stands for 50-80% inhibition)
CNc1ccc(Cl)cc1C1c2ccccc2CCN1C(=O)c1csc(C2CCN(C(=O)c3ccccc3OC(F)(F)F)CC2)n1 (centres unmarked) [compound 150] | ++ (“++” means 80-90%)
O=C(c1csc(C2CCN(C(=O)c3ccccc3OC(F)(F)F)CC2)n1)N1CCN(c2cccc(Cl)c2)CC1 [compound 151] | + (“+” stands for 50-80% inhibition)
